The record followed here is patent publication US8859541B2, “6-alkynylpyridines” (Boehringer Ingelheim International GmbH, priority 2012, dated 2014).

The target of this experiment is T1, XIAP BIR3 (Homo sapiens, UniProt P98170).
T1 construct: covering amino acids 241 to 356; XIAP BIR3; made in house; host or cells: E. coli
T1 sequence (P98170 241-356): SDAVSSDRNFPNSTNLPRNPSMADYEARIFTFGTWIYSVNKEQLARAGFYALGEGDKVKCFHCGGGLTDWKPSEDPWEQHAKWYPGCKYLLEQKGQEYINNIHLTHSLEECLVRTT
The experiment can be described thus: XIAP BIR3 binding assay (DELFIA), displacement of SMAC peptide. As to conditions: GST-fusion BIR3 domain (aa 241 to 356) 10 nM, SMAC peptide 10 nM; activity of the (S)-isomers. The method, then:
Biological Methods XIAP BIR3 and cIAP1 BIR3 Binding Assays (DELFIA)
Peptide […]-Lys(Biotin), representing the N-terminus of mature human SMAC (SMAC peptide), was used as interaction partner in the protein-peptide interaction assay.
BIR3 domains (10 nM) were incubated with SMAC peptide (10 nM) in Assay Buffer (50 mM Tris, 120 mM NaCl, 0.1% BSA, 1 mM DTT, 0.05% TritonX100) for one hour at room temperature in the presence of inhibitiory compounds. The assay mixture was transferred to a strepatvidin coated plate and incubated for one hour at room temperature to allow binding of the biotinylated peptide and associated BIR3 domains to the plate. After several washing steps Eu labeled anti-GST antibody (e.g. Perkin Elmer DELFIA Eu-N1-antiGST AD0250) was added to detect BIR3 domain-SMAC peptide interactions according to Perkin Elmer's instructions. […] Time resolved Europium fluoresecence was measured in a Wallac Victor using Standard assay settings.
DELFIA assay results were plotted against compound concentrations and Software GraphPad Prizm was used to calculate half maximal inhibitory concentrations (IC50 values).
One may read the IC50 as the concentration at which inhibition is half-maximal. In the case of `CNC(C)C(=O)Nc1ccc(-c2cnc(SC)nc2C#N)c(C#Cc2ccc3cnccc3c2)n1` (centres unmarked) [Example 59, N-[5-(4-cyano-2-methylsulfanylpyrimidin-5-yl)-6-(2-isoquinolin-6-ylethynyl)-pyridin-2-yl]-2-(methylamino)-propanamide], the IC50 is 918 nM.

The molecule `CNC(=O)c1ccc(C#Cc2nc(NC(=O)C(C)NC)ccc2-c2c(C)nc3ccccn23)cn1` (centres unmarked) [Example 62, N-methyl-5-[2-[6-[[2-(methyl-amino)propanoyl]amino]-3-(2-methylimidazo[1,2-a]pyridin-3-yl)pyridin-2-yl]ethynyl]pyridine-2-carboxamide] gave an IC50 of 620 nM.

In the case of `CNC(C)C(=O)Nc1ccc(-c2c(C)nc3ccccn23)c(C#Cc2ccc(-c3ccc(OC)cc3)cc2)n1` (centres unmarked) [Example 65, N-[6-[2-[4-(4-methoxyphenyl)-phenyl]ethynyl]-5-(2-methyl-imidazo[1,2-a]pyridin-3-yl)-pyridin-2-yl]-2-(methylamino)-propanamide], the IC50 came to 1190 nM.

`CNC(C)C(=O)Nc1ccc(-c2c(C)nc3ccccn23)c(C#Cc2nc3ccccc3s2)n1` (centres unmarked) [Example 67, N-[6-[2-(1,3-benzothiazol-2-yl)-ethynyl]-5-(2-methyl-imidazo[1,2-a]pyridin-3-yl)-pyridin-2-yl]-2-(methylamino)-propanamide] gave an IC50 of 270 nM.

`CNC(C)C(=O)Nc1ccc(-c2c(C)nc3cnccn23)c(C#Cc2ccc3ncccc3c2)n1` (centres unmarked) [Example 68, 2-(methylamino)-N-[5-(2-methylimidazo[1,2-a]pyrazin-3-yl)-6-(2-quinolin-6-ylethynyl)-pyridin-2-yl]propanamide] showed an IC50 of 165 nM.

`CNC(C)C(=O)Nc1ccc(-c2c(C)nc3ccccn23)c(C#Cc2ccc3nc(OC)ccc3c2)n1` (centres unmarked) [Example 73, N-[6-[2-(2-methoxyquinolin-6-yl)ethynyl]-5-(2-methyl-imidazo[1,2-a]pyridin-3-yl)-pyridin-2-yl]-2-(methylamino)-propanamide] registered an IC50 of 378 nM.

For `CNC(C)C(=O)Nc1ccc(-c2c(C)nc(N(C)C)nc2C)c(C#Cc2ccc3ncccc3c2)n1` (centres unmarked) [Example 76, N-[5-[2-(dimethylamino)-4,6-dimethylpyrimidin-5-yl]-6-(2-quinolin-6-ylethynyl)pyridin-2-yl]-2-(methylamino)propan-amide], the IC50 amounted to 1070 nM.

Molecule `CNC(C)C(=O)Nc1ccc(-c2c(C)nc(N3CCOCC3)nc2C)c(C#Cc2ccc3cnccc3c2)n1` (centres unmarked) [Example 83, N-[5-(4,6-dimethyl-2-morpholin-4-ylpyrimidin-5-yl)-6-(2-isoquinolin-6-ylethynyl)-pyridin-2-yl]-2-(methylamino)-propanamide] returned an IC50 of 446 nM.

The molecule `CNC(C)C(=O)Nc1ccc(-c2c(C)nc3ccccn23)c(C#Cc2ccc(F)c3ncccc23)n1` (centres unmarked) [Example 84, N-[6-[2-(8-fluoroquinolin-5-yl)-ethynyl]-5-(2-methyl-imidazo[1,2-a]pyridin-3-yl)-pyridin-2-yl]-2-(methylamino)-propanamide] returned an IC50 of 130 nM.

`CNC(C)C(=O)Nc1ccc(-c2c(C)nc3ccccn23)c(C#Cc2ccc(OC)c3ncccc23)n1` (centres unmarked) [Example 85, N-[6-[2-(8-methoxyquinolin-5-yl)ethynyl]-5-(2-methyl-imidazo[1,2-a]pyridin-3-yl)-pyridin-2-yl]-2-(methylamino)-propanamide] displayed an IC50 of 259 nM.

Molecule `CNC(C)C(=O)Nc1ccc(-c2c(C)nc(N3CCOCC3)nc2C)c(C#Cc2ccc(-c3cccnc3)cc2)n1` (centres unmarked) [Example 86, N-[5-(4,6-dimethyl-2-morpholin-4-ylpyrimidin-5-yl)-6-[2-(4-pyridin-3-ylphenyl)-ethynyl]pyridin-2-yl]-2-(methyl-amino)propanamide] returned an IC50 of 770 nM.

Consider `CNC(C)C(=O)Nc1ccc(-c2c(C)nc3ccccn23)c(C#Cc2ccc(-c3ccncc3)cc2)n1` (centres unmarked) [Example 91, 2-(methylamino)-N-[5-(2-methylimidazo[1,2-a]pyridin-3-yl)-6-[2-(4-pyridin-4-ylphenyl)-ethynyl]pyridin-2-yl]propan-amide], for which the IC50 turned out to be 267 nM.

In turn, `CNC(C)C(=O)Nc1ccc(-c2c(C)noc2C)c(C#Cc2ccc3cnccc3c2)n1` (centres unmarked) [Example 97, N-[5-(3,5-dimethyl-1,2-oxazol-4-yl)-6-(2-isoquinolin-6-ylethynyl)pyridin-2-yl]-2-(methylamino)propanamide] returned an IC50 of 644 nM.

Take `CNC(C)C(=O)Nc1ccc(-c2cnc3ccccc3c2)c(C#Cc2ccc3ccccc3c2)n1` (centres unmarked) [Example 98, 2-(methylamino)-N-[6-(2-naphthalen-2-ylethynyl)-5-quinolin-3-yl-pyridin-2-yl]propanamide]: the IC50 stood at 526 nM.

In turn, `CC(N)C(=O)Nc1ccc(-c2cccc(C(=O)O)c2)c(C#Cc2ccccc2)n1` (centres unmarked) [Example 99, 3-[6-(2-aminopropanoylamino)-2-(2-phenylethynyl)pyridin-3-yl]-benzoic acid] displayed an IC50 of 521 nM.

As for `CC(N)C(=O)Nc1ccc(-c2cccnc2)c(C#Cc2ccccc2)n1` (centres unmarked) [Example 101, 2-amino-N-[6-(2-phenylethynyl)-5-pyridin-3-ylpyridin-2-yl]-propanamide], the IC50 turned out to be 128 nM.

In turn, `CC(N)C(=O)Nc1ccc(-c2ccccc2F)c(C#Cc2ccccc2)n1` (centres unmarked) [Example 102, 2-amino-N-[5-(2-fluorophenyl)-6-(2-phenylethynyl)pyridin-2-yl]-propanamide] came in with an IC50 of 1980 nM.

For `CC(N)C(=O)Nc1ccc(-c2c(Cl)cccc2Cl)c(C#Cc2ccccc2)n1` (centres unmarked) [Example 103, 2-amino-N-[5-(2,6-dichlorophenyl)-6-(2-phenyl-ethynyl)pyridin-2-yl]propanamide], the IC50 is 3040 nM.

The molecule `Cc1cccc(C)c1-c1ccc(NC(=O)C(C)N)nc1C#Cc1ccccc1` (centres unmarked) [Example 104, 2-amino-N-[5-(2,6-dimethyl-phenyl)-6-(2-phenylethynyl)-pyridin-2-yl]propanamide] came in with an IC50 of 2020 nM.

Take `CC(N)C(=O)Nc1ccc(-c2cncnc2)c(C#Cc2ccccc2)n1` (centres unmarked) [Example 105, 2-amino-N-[6-(2-phenylethynyl)-5-pyrimidin-5-ylpyridin-2-yl]-propanamide]: the IC50 was 220 nM.

In the case of `CC(N)C(=O)Nc1ccc(-c2cncc(F)c2)c(C#Cc2ccccc2)n1` (centres unmarked) [Example 106, 2-amino-N-[5-(5-fluoropyridin-3-yl)-6-(2-phenylethynyl)pyridin-2-yl]propanamide], the IC50 was 243 nM.

With `CC(N)C(=O)Nc1ccc(-c2ccccc2)c(C#Cc2ccccc2)n1` (centres unmarked) [Example 107, 2-amino-N-[5-phenyl-6-(2-phenylethynyl)pyridin-2-yl]-propanamide], the IC50 came to 1010 nM.

As to `CC(N)C(=O)Nc1ccc(-c2ccccc2C#N)c(C#Cc2ccccc2)n1` (centres unmarked) [Example 109, 2-amino-N-[5-(2-cyanophenyl)-6-(2-phenylethynyl)pyridin-2-yl]-propanamide], the IC50 worked out at 650 nM.

Take `CC(N)C(=O)Nc1ccc(-c2ccccc2C(F)(F)F)c(C#Cc2ccccc2)n1` (centres unmarked) [Example 110, 2-amino-N-[6-(2-phenylethynyl)-5-[2-(trifluoromethyl)phenyl]-pyridin-2-yl]propanamide]: the IC50 was found to be 3190 nM.

Turning to `CC(N)C(=O)Nc1ccc(-c2cc(F)cc(F)c2)c(C#Cc2ccccc2)n1` (centres unmarked) [Example 111, 2-amino-N-[5-(3,5-difluorophenyl)-6-(2-phenyl-ethynyl)pyridin-2-yl]propanamide], the IC50 worked out at 1550 nM.

`CC(N)C(=O)Nc1ccc(-c2ccc(-c3ccc(F)cc3)nc2)c(C#Cc2ccccc2)n1` (centres unmarked) [Example 112, 2-amino-N-[5-[6-(4-fluorophenyl)pyridin-3-yl]-6-(2-phenylethynyl)pyridin-2-yl]-propanamide] returned an IC50 of 1070 nM.

As to `CC(N)C(=O)Nc1ccc(-c2cccc(F)c2)c(C#Cc2ccccc2)n1` (centres unmarked) [Example 114, 2-amino-N-[5-(3-fluorophenyl)-6-(2-phenylethynyl)pyridin-2-yl]-propanamide], the IC50 was 1630 nM.

Molecule `CC(N)C(=O)Nc1ccc(-c2cc(F)cc(C(F)(F)F)c2)c(C#Cc2ccccc2)n1` (centres unmarked) [Example 115, 2-amino-N-[5-[3-fluoro-5-(trifluoromethyl)phenyl]-6-(2-phenylethynyl)pyridin-2-yl]-propanamide] registered an IC50 of 2040 nM.

As to `CNC(C)C(=O)Nc1ccc(-c2ccccc2Cl)c(C#Cc2ccccc2)n1` (centres unmarked) [Example 116, N-[5-(2-chlorophenyl)-6-(2-phenylethynyl)pyridin-2-yl]-2-(methylamino)propanamide], the IC50 was 1770 nM.

The molecule `CNC(C)C(=O)Nc1ccc(-c2cc(C#N)ccc2Cl)c(C#Cc2ccccc2)n1` (centres unmarked) [Example 117, N-[5-(2-chloro-5-cyanophenyl)-6-(2-phenylethynyl)pyridin-2-yl]-2-(methylamino)propanamide] gave an IC50 of 406 nM.

Molecule `CNC(C)C(=O)Nc1ccc(Cc2ccccc2)c(C#Cc2ccccc2)n1` (centres unmarked) [Example 119, N-[5-benzyl-6-(2-phenylethynyl)pyridin-2-yl]-2-(methylamino)-propan-amide] gave an IC50 of 327 nM.

In the case of `CNC(C)C(=O)Nc1ccc(-c2cncc(C(=O)O)c2)c(C#Cc2ccccc2)n1` (centres unmarked) [Example 120, 5-[6-[[2-(methylamino)-propanoyl]amino]-2-(2-phenyl-ethynyl)pyridin-3-yl]pyridine-3-carboxylic acid], the IC50 turned out to be 185 nM.
